Data published in PubChem BioAssay AID2060907 (Molecular Pharmacology Branch, DTP, NCI, 2025).

System: 388556-164-R-J1-PDC complex spheroid viability
Assay: Anticancer human tumor 388556-164-R-J1-PDC patient-derived colon adenocarcinoma cell line growth inhibition [RAS]
Settings: for IC50: curve of first compound; for viability, T/C: stronger effect = lower value
Summary of the method: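 Multi-cell-type spheroids: tumor cells plus HUVEC endothelial cells and mesenchymal stem cells. RAS-pathway inhibitors were combined with targeted agents, each dosed in half-log steps down from clinical Cmax, or from 10 microM when Cmax was unknown.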
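Note: spheroids exposed to compound for 7 days before readout.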
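Throughout, for viability, T/C: 100% = DMSO vehicle control luminescence.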

Q: What does the source list for CC(C)n1nc(-c2ccc3oc(N)nc3c2)c2c(N)ncnc21 + CCn1c(-c2cccnc2C(C)OC)c2c3cc(ccc31)N1CCOC(CC(NC(=O)C(C(C)C)N(C)C(=O)C3(F)CCN(C(=O)C#CC(C)(C)N(C)C)CC3)C(=O)N3CCCC(N3)C(=O)OCC(C)(C)C2)C1?
A: IC50 (second compound 0.000949 µM): 56.8 nM; IC50 (second compound 0.003 µM): 57.7 nM; IC50 (second compound 0.00949 µM): 48.4 nM; IC50 (second compound 0.03 µM): 61.5 nM; IC50 (second compound 0.0949 µM): 57.4 nM; IC50 (second compound 0.3 µM): 49.8 nM; viability, T/C (second compound 0.000949 µM, first compound 0.000316 µM): 95.8%; viability, T/C (second compound 0.000949 µM, first compound 0.001 µM): 93.2%; viability, T/C (second compound 0.000949 µM, first compound 0.00316 µM): 88.7%; viability, T/C (second compound 0.000949 µM, first compound 0.01 µM): 74.5%; viability, T/C (second compound 0.000949 µM, first compound 0.0316 µM): 63.6%; viability, T/C (second compound 0.000949 µM, first compound 0.1 µM): 38%; viability, T/C (second compound 0.003 µM, first compound 0.000316 µM): 102%; viability, T/C (second compound 0.003 µM, first compound 0.001 µM): 90.6%; viability, T/C (second compound 0.003 µM, first compound 0.00316 µM): 86.7%; viability, T/C (second compound 0.003 µM, first compound 0.01 µM): 77.6%; viability, T/C (second compound 0.003 µM, first compound 0.0316 µM): 64.8%; viability, T/C (second compound 0.003 µM, first compound 0.1 µM): 37.7%; viability, T/C (second compound 0.00949 µM, first compound 0.000316 µM): 99.3%; viability, T/C (second compound 0.00949 µM, first compound 0.001 µM): 97.8%; viability, T/C (second compound 0.00949 µM, first compound 0.00316 µM): 96%; viability, T/C (second compound 0.00949 µM, first compound 0.01 µM): 77.3%; viability, T/C (second compound 0.00949 µM, first compound 0.0316 µM): 60%; viability, T/C (second compound 0.00949 µM, first compound 0.1 µM): 34.9%; viability, T/C (second compound 0.03 µM, first compound 0.000316 µM): 100%; viability, T/C (second compound 0.03 µM, first compound 0.001 µM): 87.6%; viability, T/C (second compound 0.03 µM, first compound 0.00316 µM): 89.1%; viability, T/C (second compound 0.03 µM, first compound 0.01 µM): 82.5%; viability, T/C (second compound 0.03 µM, first compound 0.0316 µM): 60.5%; viability, T/C (second compound 0.03 µM, first compound 0.1 µM): 41.3%; viability, T/C (second compound 0.0949 µM, first compound 0.000316 µM): 93%; viability, T/C (second compound 0.0949 µM, first compound 0.001 µM): 95.6%; viability, T/C (second compound 0.0949 µM, first compound 0.00316 µM): 80.2%; viability, T/C (second compound 0.0949 µM, first compound 0.01 µM): 78.6%; viability, T/C (second compound 0.0949 µM, first compound 0.0316 µM): 63.8%; viability, T/C (second compound 0.0949 µM, first compound 0.1 µM): 37.9%; viability, T/C (second compound 0.3 µM, first compound 0.000316 µM): 84.3%; viability, T/C (second compound 0.3 µM, first compound 0.001 µM): 89.4%; viability, T/C (second compound 0.3 µM, first compound 0.00316 µM): 77.2%; viability, T/C (second compound 0.3 µM, first compound 0.01 µM): 72.5%; viability, T/C (second compound 0.3 µM, first compound 0.0316 µM): 58.9%; viability, T/C (second compound 0.3 µM, first compound 0.1 µM): 36.8%

Q: With C[C@@H](NC(=O)c1ncnc(N)c1Cl)c1ncc(C(=O)Nc2cc(C(F)(F)F)c(Cl)cn2)s1 + C=CC(=O)N1CCN(c2nc(OCC3CCCN3C)nc3c(F)c(-c4nc(N)cc(C)c4C(F)(F)F)c(Cl)cc23)C(C)C1 as the compound, how does the IC50 (second compound 0.00316 µM) read?
A: > 10000 nM

Q: What about the IC50 (second compound 0.01 µM) of the same compound?
A: > 10000 nM

Q: And the IC50 (second compound 0.0316 µM)?
A: > 10000 nM

Q: And the IC50 (second compound 0.1 µM)?
A: > 10000 nM

Q: And the IC50 (second compound 0.316 µM)?
A: > 10000 nM

Q: And the IC50 (second compound 1 µM)?
A: > 10000 nM

Q: And the viability, T/C (second compound 0.00316 µM, first compound 0.0316 µM)?
A: 111%

Q: What about the viability, T/C (second compound 0.00316 µM, first compound 0.1 µM) of the same compound?
A: 114%

Q: And the viability, T/C (second compound 0.00316 µM, first compound 0.316 µM)?
A: 133%

Q: And the viability, T/C (second compound 0.00316 µM, first compound 1 µM)?
A: 111%

Q: What about the viability, T/C (second compound 0.00316 µM, first compound 3.16 µM) of the same compound?
A: 112%

Q: What about the viability, T/C (second compound 0.00316 µM, first compound 10 µM) of the same compound?
A: 104%

Q: And the viability, T/C (second compound 0.01 µM, first compound 0.0316 µM)?
A: 111%

Q: And the viability, T/C (second compound 0.01 µM, first compound 0.1 µM)?
A: 115%

Q: And the viability, T/C (second compound 0.01 µM, first compound 0.316 µM)?
A: 121%

Q: And the viability, T/C (second compound 0.01 µM, first compound 1 µM)?
A: 114%

Q: What about the viability, T/C (second compound 0.01 µM, first compound 3.16 µM) of the same compound?
A: 119%

Q: And the viability, T/C (second compound 0.01 µM, first compound 10 µM)?
A: 98.4%

Q: What about the viability, T/C (second compound 0.0316 µM, first compound 0.0316 µM) of the same compound?
A: 111%

Q: What about the viability, T/C (second compound 0.0316 µM, first compound 0.1 µM) of the same compound?
A: 118%

Q: What about the viability, T/C (second compound 0.0316 µM, first compound 0.316 µM) of the same compound?
A: 116%

Q: And the viability, T/C (second compound 0.0316 µM, first compound 1 µM)?
A: 117%

Q: And the viability, T/C (second compound 0.0316 µM, first compound 3.16 µM)?
A: 128%

Q: And the viability, T/C (second compound 0.0316 µM, first compound 10 µM)?
A: 101%

Q: And the viability, T/C (second compound 0.1 µM, first compound 0.0316 µM)?
A: 109%

Q: And the viability, T/C (second compound 0.1 µM, first compound 0.1 µM)?
A: 109%

Q: What about the viability, T/C (second compound 0.1 µM, first compound 0.316 µM) of the same compound?
A: 110%

Q: What about the viability, T/C (second compound 0.1 µM, first compound 1 µM) of the same compound?
A: 117%

Q: And the viability, T/C (second compound 0.1 µM, first compound 3.16 µM)?
A: 117%

Q: And the viability, T/C (second compound 0.1 µM, first compound 10 µM)?
A: 91.8%

Q: And the viability, T/C (second compound 0.316 µM, first compound 0.0316 µM)?
A: 126%

Q: And the viability, T/C (second compound 0.316 µM, first compound 0.1 µM)?
A: 122%

Q: And the viability, T/C (second compound 0.316 µM, first compound 0.316 µM)?
A: 113%

Q: And the viability, T/C (second compound 0.316 µM, first compound 1 µM)?
A: 125%

Q: And the viability, T/C (second compound 0.316 µM, first compound 3.16 µM)?
A: 122%

Q: And the viability, T/C (second compound 0.316 µM, first compound 10 µM)?
A: 97.1%

Q: What about the viability, T/C (second compound 1 µM, first compound 0.0316 µM) of the same compound?
A: 119%

Q: What about the viability, T/C (second compound 1 µM, first compound 0.1 µM) of the same compound?
A: 116%

Q: And the viability, T/C (second compound 1 µM, first compound 0.316 µM)?
A: 127%

Q: And the viability, T/C (second compound 1 µM, first compound 1 µM)?
A: 133%

Q: And the viability, T/C (second compound 1 µM, first compound 3.16 µM)?
A: 119%

Q: What about the viability, T/C (second compound 1 µM, first compound 10 µM) of the same compound?
A: 97.7%

Q: CC1(C)CCC(Nc2ncc(C(F)(F)F)c(-c3c[nH]c4c(P(C)(C)=O)c(C#N)ccc34)n2)CN1 (stereo unspecified) + C#Cc1c(F)ccc2cc(O)cc(-c3ncc4c(N5CC6CCC(C5)N6)nc(OCC56CCCN5CC(F)C6)nc4c3F)c12 was tested. Which IC50 (second compound 0.0316 µM) did it give?
A: > 300 nM

Q: What about the IC50 (second compound 0.1 µM) of the same compound?
A: > 300 nM

Q: And the IC50 (second compound 0.316 µM)?
A: > 300 nM

Q: What about the IC50 (second compound 1 µM) of the same compound?
A: > 300 nM

Q: And the IC50 (second compound 3.16 µM)?
A: > 300 nM

Q: And the IC50 (second compound 10 µM)?
A: > 300 nM

Q: And the viability, T/C (second compound 0.0316 µM, first compound 0.000949 µM)?
A: 111%

Q: What about the viability, T/C (second compound 0.0316 µM, first compound 0.003 µM) of the same compound?
A: 110%

Q: What about the viability, T/C (second compound 0.0316 µM, first compound 0.00949 µM) of the same compound?
A: 112%

Q: And the viability, T/C (second compound 0.0316 µM, first compound 0.03 µM)?
A: 94.9%

Q: What about the viability, T/C (second compound 0.0316 µM, first compound 0.0949 µM) of the same compound?
A: 118%

Q: And the viability, T/C (second compound 0.0316 µM, first compound 0.3 µM)?
A: 97.3%

Q: What about the viability, T/C (second compound 0.1 µM, first compound 0.000949 µM) of the same compound?
A: 110%

Q: And the viability, T/C (second compound 0.1 µM, first compound 0.003 µM)?
A: 112%

Q: And the viability, T/C (second compound 0.1 µM, first compound 0.00949 µM)?
A: 110%

Q: And the viability, T/C (second compound 0.1 µM, first compound 0.03 µM)?
A: 101%

Q: And the viability, T/C (second compound 0.1 µM, first compound 0.0949 µM)?
A: 116%

Q: What about the viability, T/C (second compound 0.1 µM, first compound 0.3 µM) of the same compound?
A: 92.1%

Q: And the viability, T/C (second compound 0.316 µM, first compound 0.000949 µM)?
A: 100%

Q: And the viability, T/C (second compound 0.316 µM, first compound 0.003 µM)?
A: 100%

Q: What about the viability, T/C (second compound 0.316 µM, first compound 0.00949 µM) of the same compound?
A: 91.1%

Q: What about the viability, T/C (second compound 0.316 µM, first compound 0.03 µM) of the same compound?
A: 114%

Q: What about the viability, T/C (second compound 0.316 µM, first compound 0.0949 µM) of the same compound?
A: 115%

Q: And the viability, T/C (second compound 0.316 µM, first compound 0.3 µM)?
A: 92.9%

Q: And the viability, T/C (second compound 1 µM, first compound 0.000949 µM)?
A: 97.1%

Q: What about the viability, T/C (second compound 1 µM, first compound 0.003 µM) of the same compound?
A: 92%

Q: What about the viability, T/C (second compound 1 µM, first compound 0.00949 µM) of the same compound?
A: 80.7%

Q: And the viability, T/C (second compound 1 µM, first compound 0.03 µM)?
A: 96.7%

Q: What about the viability, T/C (second compound 1 µM, first compound 0.0949 µM) of the same compound?
A: 100%

Q: What about the viability, T/C (second compound 1 µM, first compound 0.3 µM) of the same compound?
A: 84.2%

Q: And the viability, T/C (second compound 3.16 µM, first compound 0.000949 µM)?
A: 83%

Q: What about the viability, T/C (second compound 3.16 µM, first compound 0.003 µM) of the same compound?
A: 78.2%

Q: What about the viability, T/C (second compound 3.16 µM, first compound 0.00949 µM) of the same compound?
A: 99.8%

Q: What about the viability, T/C (second compound 3.16 µM, first compound 0.03 µM) of the same compound?
A: 99.5%

Q: And the viability, T/C (second compound 3.16 µM, first compound 0.0949 µM)?
A: 96.3%

Q: What about the viability, T/C (second compound 3.16 µM, first compound 0.3 µM) of the same compound?
A: 77.8%

Q: And the viability, T/C (second compound 10 µM, first compound 0.000949 µM)?
A: 70.7%

Q: And the viability, T/C (second compound 10 µM, first compound 0.003 µM)?
A: 65.1%

Q: What about the viability, T/C (second compound 10 µM, first compound 0.00949 µM) of the same compound?
A: 76.6%

Q: What about the viability, T/C (second compound 10 µM, first compound 0.03 µM) of the same compound?
A: 81%

Q: What about the viability, T/C (second compound 10 µM, first compound 0.0949 µM) of the same compound?
A: 62.7%

Q: What about the viability, T/C (second compound 10 µM, first compound 0.3 µM) of the same compound?
A: 63.4%
